The values that follow are results of earlier work, collected in patent publication US20120135104A1, “Enhanced Absorption of Omega Fatty Acid Oils” (priority 2010, published 2012).

For this series the following is noted: single emulsifier.

For the substance polyoxyethylene sorbitan monooleate, the HLB value entry was “about 15”.
